Measured values taken from patent publication US20230116972A1, “CD38 MODULATORS AND METHODS OF USE THEREOF” (Cytokinetics, Inc., priority 2021, published 2023).

Legend:
[1] = biological target: T1, mouse CD38 (Mus musculus, UniProt P56528); assay: mouse recombinant CD38 enzyme assay (hydrolysis of NAD+); assay type: biochemical; details: read-out: mCD38 BioChem IC50
T1 sequence (P56528 1-304): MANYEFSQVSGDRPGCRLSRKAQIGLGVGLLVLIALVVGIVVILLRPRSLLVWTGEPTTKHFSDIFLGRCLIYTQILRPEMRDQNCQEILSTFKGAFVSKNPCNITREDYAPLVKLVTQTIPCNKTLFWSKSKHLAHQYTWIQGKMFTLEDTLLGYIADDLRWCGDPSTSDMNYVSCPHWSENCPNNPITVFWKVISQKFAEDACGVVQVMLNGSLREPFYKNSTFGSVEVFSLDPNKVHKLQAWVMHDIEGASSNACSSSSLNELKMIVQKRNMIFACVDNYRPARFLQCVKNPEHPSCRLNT
Outline: (§1)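 Recombinant human or mouse CD38 hydrolyzing NAD+ in a cell-free buffered system. Dose-responses were run for 60 min at ambient temperature. Remaining NAD+ was converted to NADH by alcohol dehydrogenase, which drove diaphorase reduction of resazurin to resorufin, read at 540/590 nm.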

[2] = biological target: T2, endogenous CD38 in HL60 cells (Homo sapiens, UniProt P28907); assay: cellular CD38 assay in HL60 cells (cellular NAD levels); assay type: cell-based; details: all-trans retinoic acid, 24 hours, read-out: hCD38 HL60 ATRA NAD Cell Diaphorase IC50
T2 construct: endogenous in cells; host or cells: HL60 (leukemic cells, treated with all-trans retinoic acid)
T2 sequence (P28907 1-300): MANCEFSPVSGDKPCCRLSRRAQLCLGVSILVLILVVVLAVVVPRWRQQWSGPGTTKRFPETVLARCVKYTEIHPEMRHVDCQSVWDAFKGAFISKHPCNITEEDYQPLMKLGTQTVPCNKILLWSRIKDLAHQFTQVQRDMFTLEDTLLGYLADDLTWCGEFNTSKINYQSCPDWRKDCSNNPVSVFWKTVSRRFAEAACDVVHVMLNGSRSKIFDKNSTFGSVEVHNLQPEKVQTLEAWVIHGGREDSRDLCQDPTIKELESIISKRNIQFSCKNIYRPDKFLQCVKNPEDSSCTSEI
Outline: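 HL60 cells (20000/well) were treated with compound in DMSO for 24 h. Cellular NAD was then measured by an enzymatic cycling mix (alcohol dehydrogenase, diaphorase, 40 uM resazurin, 10 uM FMN, 3% ethanol, Triton X-100, pH 8.4).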

[3] = biological target: T3, human CD38 (Homo sapiens, UniProt P28907); assay: human recombinant CD38 enzyme assay (hydrolysis of NAD+); assay type: biochemical; details: human recombinant CD38, 0.4 nM enzyme, 62.5 μM NAD+; read-out: hCD38 BioChem IC50
T3 sequence (P28907 1-300): T2 sequence (P28907 1-300)
Outline: as §1

Row | Compound | IC50 [1] | IC50 [2] | IC50 [3]
1 | O=C(Nc1cccnc1)c1cncc(-n2ccnc2)n1 [Compound 56, 6-(1H-imidazol-1-yl)-N-(pyridin-3-yl)pyrazine-2-carboxamide] | 0.006 µM | 0.263 µM | 0.005 µM
2 | O=C(Nc1ccccc1)c1cc(-n2ccnc2)ccn1 [Compound 5, 4-(1H-imidazol-1-yl)-N-phenylpicolinamide] | 0.42 µM | 7.82 µM | 0.313 µM
3 | O=C(Nc1ccc(F)c(F)c1)c1cccc(-n2ccnc2)n1 [Compound 34, N-(3,4-difluorophenyl)-6-(1H-imidazol-1-yl)picolinamide] | 0.006 µM | 0.509 µM | 0.004 µM
4 | COC(=O)N1CCC(NC(=O)c2cccc(-n3ccnc3)n2)CC1 [Compound 45, methyl 4-(6-(1H-imidazol-1-yl)picolinamido)piperidine-1-carboxylate] | 0.044 µM | 4.69 µM | 0.082 µM
5 | O=C(N[C@H]1CC[C@H](C(F)(F)F)CC1)c1ccnc(-n2ccnc2)n1 [Compound 79, 2-(1H-imidazol-1-yl)-N-((1r,4r)-4-(trifluoromethyl)cyclohexyl)pyrimidine-4-carboxamide] | 0.012 µM | 2.33 µM | 0.021 µM
6 | O=C(Nc1ccc(C(F)(F)F)nc1)c1cccc(-n2ccnc2)n1 [Compound 13, 6-(1H-imidazol-1-yl)-N-(6-(trifluoromethyl)pyridin-3-yl)picolinamide] | 0.008 µM | 0.568 µM | 0.006 µM
7 | CO[C@@H]1CC[C@@H](NC(=O)c2cccc(-n3ccnc3)n2)C1 [Compound 57, 6-(1H-imidazol-1-yl)-N-(3-methoxycyclopentyl)picolinamide] | 0.036 µM | 4.55 µM | 0.187 µM
8 | Cc1cc(C(F)(F)F)ncc1NC(=O)c1cccc(-n2ccnc2)n1 [Compound 29, 6-(1H-imidazol-1-yl)-N-(4-methyl-6-(trifluoromethyl)pyridin-3-yl)picolinamide] | 0.11 µM | 8.55 µM | 0.389 µM
9 | Cc1cc(NC(=O)c2cccc(-c3cncs3)n2)ccn1 [Compound 52, N-(2-methylpyridin-4-yl)-6-(thiazol-5-yl)picolinamide] | 0.292 µM | 11.4 µM | 0.678 µM
10 | O=C(NC1CCOC1)c1cccc(-n2ccnc2)n1 (stereo not drawn) [Compound 63, 6-(1H-imidazol-1-yl)-N-(tetrahydrofuran-3-yl)picolinamide] | 0.163 µM | 5.91 µM | 0.404 µM
11 | COCCO[C@H]1CC[C@H](NC(=O)c2cc(C(F)(F)F)cc(-n3ccnc3)n2)CC1 [Compound 61, 6-(1H-imidazol-1-yl)-N-(4-(2-methoxyethoxy)cyclohexyl)-4-(trifluoromethyl)picolinamide] | 0.013 µM | 7.85 µM | 0.073 µM
12 | CO[C@H]1CC[C@H](NC(=O)c2ccnc(-c3cncn3C)n2)CC1 [Compound 84, N-((1r,4r)-4-methoxycyclohexyl)-2-(1-methyl-1H-imidazol-5-yl)pyrimidine-4-carboxamide] | 0.002 µM | 1.11 µM | 0.012 µM
13 | COC(=O)N1CC2(CC(NC(=O)c3cccc(-n4ccnc4)n3)C2)C1 [Compound 48, methyl 6-(6-(1H-imidazol-1-yl)picolinamido)-2-azaspiro[3.3]heptane-2-carboxylate] | 0.046 µM | 3.76 µM | 0.244 µM
14 | O=C(Nc1cccnc1)c1ccnc(-n2ccnc2)n1 [Compound 37, 2-(1H-imidazol-1-yl)-N-(pyridin-3-yl)pyrimidine-4-carboxamide] | 0.006 µM | 0.339 µM | 0.004 µM
15 | O=C(N[C@H]1CC[C@H](C(F)F)CC1)c1cccc(-n2ccnc2)n1 [Compound 64, N-(4-(difluoromethyl)cyclohexyl)-6-(1H-imidazol-1-yl)picolinamide] | 0.007 µM | 2.42 µM | 0.034 µM

Results, then the molecule that gave them:

Row | IC50 [1] | IC50 [2] | IC50 [3] | Compound
16 | 0.001 µM | 2.35 µM | 0.013 µM | Cn1cncc1-c1nc(C(=O)N[C@H]2CC[C@H](C(F)F)CC2)cc(C(F)(F)F)n1 [Compound 152, N-((1r,4r)-4-(difluoromethyl)cyclohexyl)-2-(1-methyl-1H-imidazol-5-yl)-6-(trifluoromethyl)pyrimidine-4-carboxamide]
17 | 0.003 µM | 3.73 µM | 0.015 µM | CO[C@H]1CC[C@H](NC(=O)c2cc(C(C)C)nc(-c3cncn3C)n2)CC1 [Compound 171, 6-isopropyl-N-((1r,4r)-4-methoxycyclohexyl)-2-(1-methyl-1H-imidazol-5-yl)pyrimidine-4-carboxamide]
18 | 0.0007 µM | 0.882 µM | 0.0031 µM | Cn1cncc1-c1nc(C(=O)Nc2ccc(C(F)F)nc2)cc(C2CCC(F)(F)CC2)n1 [Compound 287, 6-(4,4-difluorocyclohexyl)-N-(6-(difluoromethyl)pyridin-3-yl)-2-(1-methyl-1H-imidazol-5-yl)pyrimidine-4-carboxamide]
19 | 0.002 µM | 0.241 µM | 0.002 µM | Cn1cncc1-c1nccc(C(=O)Nc2ccc(C(F)F)nc2)n1 [Compound 94, N-(6-(difluoromethyl)pyridin-3-yl)-2-(1-methyl-1H-imidazol-5-yl)pyrimidine-4-carboxamide]
20 | 0.0044 µM | 0.209 µM | 0.0014 µM | Cn1cncc1-c1ccnc(C(=O)Nc2ccc(OC(F)F)nc2)n1 [Compound 276, N-(6-(difluoromethoxy)pyridin-3-yl)-4-(1-methyl-1H-imidazol-5-yl)pyrimidine-2-carboxamide]
21 | 0.0016 µM | 2.12 µM | 0.0157 µM | Cn1cncc1-c1nc(C(=O)N[C@H]2CC[C@H](NCC(F)(F)F)CC2)cc(C2CCOCC2)n1 [Compound 300, 2-(1-methyl-1H-imidazol-5-yl)-6-(tetrahydro-2H-pyran-4-yl)-N-((1r,4r)-4-((2,2,2-trifluoroethyl)amino)cyclohexyl) pyrimidine-4-carboxamide]
22 | 0.007 µM | 1.01 µM | 0.023 µM | C[C@H]1CC[C@H](NC(=O)c2cncc(-n3ccnc3)n2)CC1 [Compound 102, 6-(1H-imidazol-1-yl)-N-((1r,4r)-4-methylcyclohexyl)pyrazine-2-carboxamide]
23 | 0.002 µM | 3.13 µM | 0.025 µM | Cn1cncc1-c1nc(C(=O)N[C@H]2CC[C@H](C)CC2)cc(C(F)(F)F)n1 [Compound 153, 2-(1-methyl-1H-imidazol-5-yl)-N-((1r,4r)-4-methylcyclohexyl)-6-(trifluoromethyl)pyrimidine-4-carboxamide]
24 | 0.0359 µM | 4.17 µM | 0.0834 µM | O=C(N[C@H]1CC[C@H](NCC(F)(F)F)CC1)c1nccc(-n2ccnc2)n1 [Compound 265, 4-(1H-imidazol-1-yl)-N-((1r,4r)-4-((2,2,2-trifluoroethyl)amino)cyclohexyl) pyrimidine-2-carboxamide]
25 | 0.0636 µM | 7.16 µM | 0.111 µM | O=C(NC1CCC(F)(F)CC1)c1cc(C2CCOCC2)nc(-n2ccnc2)n1 [Compound 194, N-(4,4-difluorocyclohexyl)-2-(1H-imidazol-1-yl)-6-(tetrahydro-2H-pyran-4-yl)pyrimidine-4-carboxamide]
26 | 0.007 µM | 0.867 µM | 0.008 µM | Cc1ccc(NC(=O)c2cc(C(F)(F)F)nc(-n3ccnc3)n2)cn1 [Compound 137, 2-(1H-imidazol-1-yl)-N-(6-methylpyridin-3-yl)-6-(trifluoromethyl)pyrimidine-4-carboxamide]
27 | 0.001 µM | 2.3 µM | 0.024 µM | COCCO[C@H]1CC[C@H](NC(=O)c2cc(C)nc(-c3cncn3C)n2)CC1 [Compound 155, N-((1r,4r)-4-(2-methoxyethoxy)cyclohexyl)-6-methyl-2-(1-methyl-1H-imidazol-5-yl)pyrimidine-4-carboxamide]
28 | 0.001 µM | 0.952 µM | 0.01 µM | Cc1cc(C(=O)N[C@H]2CC[C@H](C)CC2)nc(-c2cncn2C)n1 [Compound 123, 6-methyl-2-(1-methyl-1H-imidazol-5-yl)-N-((1r,4r)-4-methylcyclohexyl)pyrimidine-4-carboxamide]
29 | 0.01 µM | 4.74 µM | 0.106 µM | CO[C@H]1CC[C@H](NC(=O)c2cc(C)cc(-c3cncn3C)n2)CC1 [Compound 98, N-(4-methoxycyclohexyl)-4-methyl-6-(1-methyl-1H-imidazol-5-yl)picolinamide]
